T/C data for 26 compounds are collected here from PubChem BioAssay AID330 (DTP/NCI, 2004).

Values joined by “and” are separate entries in the source; they are usually repeats but may differ in a detail not shown here. Equal values may be shown once. Toxic doses and inconclusive results are not listed.

The test system of the experiment is P388 leukemia ip, CD2F1 mice, survival T/C. The experiment in a line: NCI In Vivo Anticancer Drug Screen. Data for tumor model P388 Leukemia (intraperitoneal) in CD2F1 (CDF1) mice. Conditions: endpoint: median survival time, higher = longer survival. The essentials:
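Mice carrying the transplanted tumor received test compound or vehicle. Survival was recorded in each group, and the value is the treated-group measurement divided by that of the vehicle-treated control group.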

[1] abbreviates: dose: 50.0 mg/kg/injection, schedule: Q01DX009 (ip), vehicle: saline.
[2] abbreviates: dose: 50.0 mg/kg/injection, schedule: Q01DX009 (ip), vehicle: saline with Tween-80.
The mark [3] stands for this setting: dose: 100.0 mg/kg/injection, schedule: Q01DX009 (ip), vehicle: saline with Tween-80.
Where [4] appears, read: dose: 200.0 mg/kg/injection, schedule: Q01DX009 (ip), vehicle: saline with Tween-80.
Where [5] appears, read: dose: 12.5 mg/kg/injection, schedule: Q01DX005 (ip), vehicle: Klucel (hydroxypropylcellulose) (HPC).
Setting [6] is: dose: 25.0 mg/kg/injection, schedule: Q01DX005 (ip), vehicle: Klucel (hydroxypropylcellulose) (HPC).
Where [7] appears, read: dose: 50.0 mg/kg/injection, schedule: Q01DX005 (ip), vehicle: Klucel (hydroxypropylcellulose) (HPC).
The mark [8] stands for this setting: dose: 25.0 mg/kg/injection, schedule: Q01DX001 (ip), vehicle: saline with Tween-80.
Setting [9] is: dose: 50.0 mg/kg/injection, schedule: Q01DX001 (ip), vehicle: saline with Tween-80.
Setting [10] is: dose: 100.0 mg/kg/injection, schedule: Q01DX001 (ip), vehicle: saline with Tween-80.
Setting [11] is: dose: 60.0 mg/kg/injection, schedule: Q01DX005 (ip), vehicle: saline with Tween-80.
The mark [12] stands for this setting: dose: 120.0 mg/kg/injection, schedule: Q01DX005 (ip), vehicle: saline with Tween-80.
Setting [13] is: dose: 240.0 mg/kg/injection, schedule: Q01DX005 (ip), vehicle: saline with Tween-80.
Setting [14] is: dose: 50.0 mg/kg/injection, schedule: Q01DX005 (ip), vehicle: saline with Tween-80.
Setting [15] is: dose: 100.0 mg/kg/injection, schedule: Q01DX005 (ip), vehicle: saline with Tween-80.
Setting [16] is: dose: 200.0 mg/kg/injection, schedule: Q01DX005 (ip), vehicle: saline with Tween-80.
Where [17] appears, read: dose: 100.0 mg/kg/injection, schedule: Q01DX009 (ip), vehicle: saline.
[18] abbreviates: dose: 200.0 mg/kg/injection, schedule: Q01DX009 (ip), vehicle: saline.

Regarding `O=NNc1ccc(Sc2ccc(NN=O)cn2)nc1`, the T/C (dose: 3.12 mg/kg/injection, schedule: Q01DX009 (ip), vehicle: saline) was 100 % of control; the T/C (dose: 6.25 mg/kg/injection, schedule: Q01DX009 (ip), vehicle: saline) is 107 % of control; the T/C (dose: 12.5 mg/kg/injection, schedule: Q01DX009 (ip), vehicle: saline) was 114 % of control; the T/C under setting [1] is 122 % of control.

Take `CCOC(=O)C(N)C[S][Sn]([CH3])([CH3])[Cl]` (centres undefined): under setting [2], the T/C was 91 % of control.

For the compound `COc1cc(OC)c(NC(=O)NNC(=O)C(=O)NC2CC2)cc1Cl`, the T/C is, setting by setting: under setting [2], 99 % of control; under setting [3], 97 % of control; under setting [4], 98 % of control.

Consider `O=C([O][Bi]([c]1ccccc1)[c]1ccccc1)c1ccccc1`, for which the T/C is 113 % of control (dose: 6.25 mg/kg/injection, schedule: Q01DX005 (ip), vehicle: Klucel (hydroxypropylcellulose) (HPC)); 106 % of control under setting [5]; 102 % of control and 106 % of control under setting [6]; 122 % of control under setting [7].

With `Cc1nnc2c(=O)n(C)ccn12`, the T/C runs as follows: under setting [8], 95 % of control; under setting [9], 95 % of control; under setting [10], 97 % of control.

Take `O=C(O)C1C(C(=O)O)C2(Cl)C(Cl)=C(Cl)C1(Cl)C2(Cl)Cl.[Cu+2]` (centres undefined): the T/C runs as follows: (dose: 50.0 mg/kg/injection, schedule: Q01DX001 (ip), vehicle: saline sonified) 104 % of control; (dose: 100.0 mg/kg/injection, schedule: Q01DX001 (ip), vehicle: saline sonified) 118 % of control.

On to `CC(C)(C)OOC(=O)C1CCCCC1`, for which the T/C is, setting by setting: under setting [11], 100 % of control; under setting [12], 103 % of control; under setting [13], 92 % of control.

In the case of `S=C1NCC[Se]1`, the T/C reads like this: (dose: 6.25 mg/kg/injection, schedule: Q01DX009 (ip), vehicle: DMSO) 103 % of control; (dose: 12.5 mg/kg/injection, schedule: Q01DX009 (ip), vehicle: DMSO) 105 % of control.

Take `C=CCc1cc2c(cc1C(C)c1ccc(OC)cc1)OCO2` (centres undefined): the T/C reads like this: under setting [14], 106 % of control; under setting [15], 109 % of control; under setting [16], 117 % of control.

With `Clc1ccc(C2=Nc3ccccc3SC(c3ccco3)C2)cc1Cl` (centres undefined), the T/C is, setting by setting: (dose: 100.0 mg/kg/injection, schedule: Q04DX002 (ip), vehicle: saline with Tween-80) 100 % of control; (dose: 200.0 mg/kg/injection, schedule: Q04DX002 (ip), vehicle: saline with Tween-80) 96 % of control; (dose: 400.0 mg/kg/injection, schedule: Q04DX002 (ip), vehicle: saline with Tween-80) 102 % of control.

Consider `CNC(=O)OCc1c(COC(=O)NC)c(-c2ccc(S(C)(=O)=O)cc2)n(C)c1C`, for which the T/C by setting is: (dose: 12.5 mg/kg/injection, schedule: Q01DX009 (ip), vehicle: distilled water + Tween-80) 111 % of control; (dose: 50.0 mg/kg/injection, schedule: Q01DX009 (ip), vehicle: distilled water + Tween-80) 162 % of control; (dose: 100.0 mg/kg/injection, schedule: Q01DX009 (ip), vehicle: distilled water + Tween-80) 161 % of control and 180 % of control; (dose: 200.0 mg/kg/injection, schedule: Q01DX009 (ip), vehicle: distilled water + Tween-80) 198 % of control.

Regarding `C1CN1Sc1nc(SN2CC2)nc(SN2CC2)n1`, the T/C is, setting by setting: (dose: 60.0 mg/kg/injection, schedule: Q01DX005 (ip), vehicle: Klucel (hydroxypropylcellulose) (HPC)) 100 % of control; (dose: 120.0 mg/kg/injection, schedule: Q01DX005 (ip), vehicle: Klucel (hydroxypropylcellulose) (HPC)) 97 % of control.

As for `O=C(Nc1ccc(OCCCCCOc2ccccc2)cc1)C(F)(F)F`, the T/C reads like this: under setting [2], 100 % of control; under setting [3], 116 % of control; under setting [4], 114 % of control.

Consider `Nc1cnnc2nc[nH]c12`, for which the T/C is 100 % of control under setting [5]; 101 % of control under setting [6]; 100 % of control and 111 % of control under setting [7]; 117 % of control (dose: 100.0 mg/kg/injection, schedule: Q01DX005 (ip), vehicle: Klucel (hydroxypropylcellulose) (HPC)).

As to `C1=C[N-]c2c3c(ccc2=C1)=CC=C[N-]3.C1=C[N-]c2c3c(ccc2=C1)=CC=C[N-]3.C1C[N-]C2C(C1)CCC1CC[N-]CC12.[Ni]`, the T/C is, setting by setting: (dose: 3.12 mg/kg/injection, schedule: Q01DX005 (ip), vehicle: saline) 97 % of control; (dose: 6.25 mg/kg/injection, schedule: Q01DX005 (ip), vehicle: saline) 96 % of control.

With `[Co].[N-]=C=S.[N-]=C=S.[N-]=C=S.[NH-]CC[N-]CC[NH-]`, the T/C reads like this: (dose: 2.5 mg/kg/injection, schedule: Q01DX009 (ip), vehicle: saline) 114 % of control; (dose: 5.0 mg/kg/injection, schedule: Q01DX009 (ip), vehicle: saline) 114 % of control; (dose: 10.0 mg/kg/injection, schedule: Q01DX009 (ip), vehicle: saline) 107 % of control; (dose: 22.0 mg/kg/injection, schedule: Q01DX009 (ip), vehicle: saline) 88 % of control; (dose: 44.0 mg/kg/injection, schedule: Q01DX009 (ip), vehicle: saline) 100 % of control; under setting [1], 118 % of control.

As for `COc1cc2c(cc1OC)C1CC(CC(N)=O)(C(N)=O)CCN1CC2` (centres undefined), the T/C reads like this: under setting [14], 97 % of control; under setting [15], 94 % of control; under setting [16], 90 % of control.

`CC(=O)n1c(Cl)c(/C=N/NS(=O)(=O)c2ccc(C)cc2)c2ccccc21`: the T/C was 100 % of control under setting [8]; 86 % of control and 88 % of control under setting [9]; 91 % of control under setting [10].

In the case of `CCOC(CN/C(=C/c1ccc2ccccc2[n+]1C)SC)OCC`, the T/C runs as follows: (dose: 15.0 mg/kg/injection, schedule: Q01DX005 (ip), vehicle: saline with Tween-80) 117 % of control; (dose: 30.0 mg/kg/injection, schedule: Q01DX005 (ip), vehicle: saline with Tween-80) 121 % of control.

As for `CCCc1[nH]nc(-c2n[nH]c(CCC)c2CC)c1CC`, the T/C runs as follows: under setting [11], 101 % of control; under setting [12], 93 % of control; under setting [13], 110 % of control.

On to `CCCC1OC1(CC)COC(=O)NC` (centres undefined), for which the T/C by setting is: under setting [14], 100 % of control; under setting [15], 101 % of control; under setting [16], 117 % of control.

Take `OCc1sccc1-n1cccc1`: the T/C was 104 % of control under setting [11], 104 % of control under setting [12] and 104 % of control under setting [13].

Take `CCNC(=O)CCC(NS(=O)(=O)c1ccccc1)C(=O)O` (centres undefined): the T/C (dose: 100.0 mg/kg/injection, schedule: Q04DX002 (ip), vehicle: Klucel (hydroxypropylcellulose) (HPC)) was 103 % of control; the T/C (dose: 200.0 mg/kg/injection, schedule: Q04DX002 (ip), vehicle: Klucel (hydroxypropylcellulose) (HPC)) is 97 % of control; the T/C (dose: 400.0 mg/kg/injection, schedule: Q04DX002 (ip), vehicle: Klucel (hydroxypropylcellulose) (HPC)) is 96 % of control.

In the case of `CCN(CC)CCn1cnc(C#N)c1N`, the T/C is 101 % of control under setting [1], 100 % of control under setting [17] and 108 % of control under setting [18].

In the case of `CC1=C(C#N)C(C)(C)C(C#N)=C(C)N1`, the T/C was 108 % of control (dose: 12.5 mg/kg/injection, schedule: Q01DX009 (ip), vehicle: other); 106 % of control (dose: 25.0 mg/kg/injection, schedule: Q01DX009 (ip), vehicle: other); 92 % of control (dose: 50.0 mg/kg/injection, schedule: Q01DX009 (ip), vehicle: other).

Take `FC(F)(F)c1cc(NC(=S)SC2CCCCC2)ccc1Cl`: the T/C was 103 % of control (dose: 25.0 mg/kg/injection, schedule: Q01DX009 (ip), vehicle: saline); 100 % of control and 110 % of control under setting [1]; 107 % of control and 118 % of control under setting [17]; 121 % of control under setting [18].
